Test results reported in EP0565593B1, “REDUCING PESTICIDAL INTERACTIONS IN CROPS” (priority 1990, dated 1992).
Where “and” joins values, the source holds several entries; their conditions need not be identical. Equal values may be shown once. Read-outs that look alike come from different tables or passages of the source.

Key:
[1] = system: cotton (COTT); assay: Multi-crop greenhouse test, biocide, herbicide and safener applied to soil covers (Examples 65, 66; Tables 64, 65); assay type: in vivo; set-up: inhibition: dose or concentration left out as unconfirmed; details: for inhibition / inhibition at 18 g/ha / inhibition at 70 g/ha / inhibition at 280 g/ha: Gossypium hirsutum, soil; for inhibition at 18 g/ha: Herb. No. 1 0.018 Kg/Ha alone; for inhibition at 70 g/ha: Herb. No. 1 0.07 Kg/Ha alone; for inhibition at 280 g/ha: Herb. No. 1 0.28 Kg/Ha alone
Description: (§1) Tests according to this invention in various crops indicate widespread application of the invention. In Examples 62-66 below are described tests with a variety of herbicides contacted with COUNTER® 15G in the presence and absence of MON-7400 (Antidote No. 12); MON-13900 (No. 1); MON-4660 (No. 16) and flurazole (No. 16). Those tests were conducted according to Procedures IV or V described above and illustrated further in other foregoing examples. Plants used in all tests were, for crops (as abbreviated in parentheses); cotton (COTT); soybean (SOBE); CORN, grain sorghum (GRSO); wheat (WHEA) and RICE, and the weeds giant foxtail (GIFT) and velvetleaf (VELE). The data in the tables below represent averages of two replications.
(§2) In this test the crops and weeds were planted 1.3 cm deep in 13.7 cm X 27.7 cm pans containing Dupo silt loam soil. The test safeners were applied in acetone solution and COUNTER 15G as dry granules to soil cover layers and incorporated by shaking in a bag. Treated cover layers were placed on seeded pans which were transferred to greenhouse benches and subirrigated. Herbicide was applied POE six (6) days after PPI initiation and observations of plant injury made ten (10) days later; results are shown in Table 61. The herbicide used in this example was BEACON (No. 8).
(§3) In another test in the several crops and weeds used in this test series, the herbicidal component was MON-12000 (No. 1); the other components were the same. the procedure used in this test was the same as that described in Example 62, modified to use a light overhead irrigation (about 0.32 cm/day) during days 4-7 of the test.
In yet another test in this series, XRD-498 (Herbicide No. 21) was used as the herbicidal component in contact with COUNTER 15G in the presence of the above safeners. The various components of the system (biocide, herbicide and safener) were applied concurrently to soil covers of the seeded plants.

[2] = system: Velvetleaf (VELE); assay: Multi-crop greenhouse test, soil-applied (Examples 65, 66; Tables 64, 65); assay type: in vivo, Abutilon theophrasti; set-up: inhibition: dose or concentration left out as unconfirmed; details: for inhibition / inhibition at 18 g/ha / inhibition at 70 g/ha / inhibition at 280 g/ha: Abutilon theophrasti; for inhibition at 18 g/ha: Herb. No. 1 0.018 Kg/Ha alone; for inhibition at 70 g/ha: Herb. No. 1 0.07 Kg/Ha alone; for inhibition at 280 g/ha: Herb. No. 1 0.28 Kg/Ha alone
Description: as §1, §2
as §3, with “test. Table 64 […]” for “test.”

[3] = system: Velvetleaf (VELE); assay: whole plant or invertebrate; assay type: in vivo, Abutilon theophrasti; details: for inhibition at 140 g/ha: Abutilon theophrasti, iv, 312 h
[4] = system: Velvetleaf (VELE); assay type: in vivo, Abutilon theophrasti
[5] = system: Velvetleaf (VELE); assay: Greenhouse test Procedure VII (same examples); assay type: in vivo, Abutilon theophrasti; details: Antidote + Biocide No. 1 in furrow
From the text: This procedure describes interaction among herbicide, biocide and antidote when the biocide and the antidote is applied to a soil furrow containing crop seed before emergence of the crop and the herbicide is applied after emergence of the crop and weeds. The soil and planting depth was described in Procedure IV. The containers for comparison, the biocide and antidote applications to soil furrows were described in Procedure VI. In this procedure, the seed beds of the first, second, third and fourth containers are covered by soil layers not treated with herbicide. The containers were then placed on a bench in a greenhouse and subirrigated as required for the duration of the test. The herbicide, dispersed or dissolved in water containing 0.25% v/v nonionic surfactant (X-77) was applied by a track sprayer (187 L/ha) to the emerged plants of the second, third and fourth containers about five days after planting. All treatments were run in duplicate. Plant response was observed according to Procedure IV. Variations in this procedure will be noted in the examples.
In this example, tests were conducted according to Procedure VII for the POE application of the herbicides following in-furrow application of COUNTER® 15G insecticide (BIOCIDE No. 1) and the antidote on the pre-planted test seeds. In this test, the herbicides were Nos. 1 (MON-12000), 10 (ALLY®) and #4 (HARMONY®) and the Antidote Nos. 1, 7, 12 and 33.
These in-furrow treatments comprised a 50-50 mix of blended granules of COUNTER with and without 5G granular antidotes at 7.4 + 7.4 mg/cm or 1.1 + 0.37 mg active ingredient (a.i.)/cm. The in-furrow initiation of the test was followed five (5) days later with POE application of the herbicides; observations were made eight (8) days later. Table 38 […]

[6] = Table 64, Herb. No. 1 0.018 Kg/Ha + Biocide No. 1 8.96 Kg/Ha
[7] = Table 64, Herb. No. 1 0.07 Kg/Ha + Biocide No. 1 8.96 Kg/Ha
[8] = Table 64, Herb. No. 1 0.28 Kg/Ha + Biocide No. 1 8.96 Kg/Ha
[9] = Table 65, Herb. No. 1 0.018 Kg/Ha + Biocide No. 1 8.96 Kg/Ha
[10] = Table 65, Herb. No. 1 0.07 Kg/Ha + Biocide No. 1 8.96 Kg/Ha
[11] = Table 65, Herb. No. 1 0.28 Kg/Ha + Biocide No. 1 8.96 Kg/Ha
[12] = Table 64, Herb. No. 1 0.018 Kg/Ha + Biocide No. 1 8.96 Kg/Ha + Antidote 4.48 Kg/Ha
[13] = Table 64, Herb. No. 1 0.07 Kg/Ha + Biocide No. 1 8.96 Kg/Ha + Antidote 4.48 Kg/Ha
[14] = Table 64, Herb. No. 1 0.28 Kg/Ha + Biocide No. 1 8.96 Kg/Ha + Antidote 4.48 Kg/Ha
[15] = Table 65, Herb. No. 1 0.018 Kg/Ha + Biocide No. 1 8.96 Kg/Ha + Antidote 4.48 Kg/Ha
[16] = Table 65, Herb. No. 1 0.07 Kg/Ha + Biocide No. 1 8.96 Kg/Ha + Antidote 4.48 Kg/Ha
[17] = Table 65, Herb. No. 1 0.28 Kg/Ha + Biocide No. 1 8.96 Kg/Ha + Antidote 4.48 Kg/Ha

## COC(=O)c1c(Cl)nn(C)c1S(=O)(=O)NC(=O)Nc1nc(OC)cc(OC)n1 [Herbicide No. 1, N-[(4,6-dimethoxypyrimidin-2-yl)aminocarbonyl]-3-chloro-4-methoxycarbonyl-5-sulfonamide, reference compound]
[1]; [6]
  inhibition: 15%
[1]; Table 64
  inhibition at 18 g/ha: 10%
  inhibition at 70 g/ha: 20%
  inhibition at 280 g/ha: 60%
[1]; [7]
  inhibition: 0%
[1]; [8]
  inhibition: 55%
[1]; [9]
  inhibition: 0%
[1]; Table 65
  inhibition at 18 g/ha: 0%
  inhibition at 70 g/ha: 20%
  inhibition at 280 g/ha: 40%
[1]; [10]
  inhibition: 20%
[1]; [11]
  inhibition: 75%
[2]; [6]
  inhibition: 75%
[2]; Table 64
  inhibition at 18 g/ha: 70%
  inhibition at 70 g/ha: 90%
  inhibition at 280 g/ha: 100%
[2]; [7]
  inhibition: 85%
[2]; [8]
  inhibition: 100%
[2]; [9]
  inhibition: 10%
[2]; Table 65
  inhibition at 18 g/ha: 15%
  inhibition at 70 g/ha: 80%
  inhibition at 280 g/ha: 90%
[2]; [10]
  inhibition: 80%
[2]; [11]
  inhibition: 90%
[3]; Herb. No. 1 0.14 kg/Ha alone, PPI, 13 days after planting
  inhibition at 140 g/ha: 95%
[3]; Table 51, Herbicide No. 1 0.14 Kg/Ha, where applied Biocide No. 8 8.96 kg/Ha and antidote 4.48 Kg/Ha, all PPI, observed 13 days after treatment
  inhibition at 140 g/ha: 85%
[3]; Table 52, Herbicide No. 1 0.14 Kg/Ha, where applied Biocide No. 5 8.96 kg/Ha and antidote 4.48 Kg/Ha, all PPI, observed 13 days after treatment
  inhibition at 140 g/ha: 85%
[3]; Herbicide No. 1 0.0175 Kg/Ha PPI alone, Table 19
  % Inhibition VELE: 85%
[3]; Herbicide No. 1 0.0175 Kg/Ha PPI alone, Table 20
  % Inhibition VELE: 80%
[3]; Herbicide No. 1 0.0175 Kg/Ha PPI alone, Table 21
  % Inhibition VELE: 80%
[3]; Herbicide No. 1 0.0175 Kg/Ha PPI alone, Table 22
  % Inhibition VELE: 85%
[3]; in vivo
  % Inhibition VELE: 95% and 90% and 80%

## COC(=O)COC(c1ccccc1)c1ccccc1 [compound 12]
[1]; [12]
  % Inhibition COTT: 10%
[1]; [13]
  % Inhibition COTT: 40%
[1]; [14]
  % Inhibition COTT: 40%
[1]; [15]
  % Inhibition COTT: 15%
[1]; [16]
  % Inhibition COTT: 10%
[1]; [17]
  % Inhibition COTT: 35%
[4]; Antidote 4.48 + Biocide No. 1 8.96 Kg/Ha PPI, Herb. No. 8 0.07, 5 DAP, before herbicide application
  % Inhibition 5 DAP VELE: 25%
[4]; Antidote 4.48 + Biocide No. 1 8.96 Kg/Ha PPI, Herb. No. 8 0.07 POE, 13 DAP
  % Inhibition 13 DAP VELE: 90%
[4]; Antidote 4.48 + Biocide No. 1 8.96 Kg/Ha PPI, Herbicide No. 7 0.28 POE, 13 days after planting
  % Inhibition VELE: 65%
[4]; Herb. […], 5 DAP, before herbicide application
  % Inhibition 5 DAP VELE: 0%
[4]; Herb. […], 13 DAP, after herbicide application
  % Inhibition 13 DAP VELE: 90%
[4]; Table 14: Herbicide No. 7 (ACCENT) 0.84 Kg/Ha POE + Biocide No. 2 8.96 Kg/Ha PPI + antidote 4.48 Kg/Ha PPI, 13 days after planting, 8 days after herbicide
  % Inhibition VELE: 70%
[4]; […], 13 days after planting, 8 days after herbicide
  % Inhibition VELE: 75%
[4]; […], observed 8 days later (Table 32)
  % Inhibition VELE: 85%
[4]; […], observed 8 days later (Table 33)
  % Inhibition VELE: 75%
[4]; […], observed 10 days after herbicide application
  % Inhibition VELE: 90%
[4]; in vivo
  % Inhibition 5 DAP VELE: 20%
  % Inhibition 13 DAP VELE: 85%
  % Inhibition VELE: 70% and 65% and 85% and 75% and 90% and 80%
[5]; Herbicide No. 1 0.14 Kg/Ha POE, 8 days after POE
  % Inhibition VELE: 90%
[5]; Herbicide No. 4 0.17 Kg/Ha POE, 8 days after POE
  % Inhibition VELE: 85%
[5]; Herbicide No. 5 0.07 Kg/Ha POE, 8 days after POE
  % Inhibition VELE: 85%
[5]; Herbicide No. 6 0.01 Kg/Ha POE
  % Inhibition VELE: 65%
[5]; Herbicide No. 7 0.56 Kg/Ha POE, 8 days after POE
  % Inhibition VELE: 75%
[5]; Herbicide No. 9 0.009 Kg/Ha POE
  % Inhibition VELE: 85%
[5]; Herbicide No. 10 0.002 Kg/Ha POE, 8 days after POE
  % Inhibition VELE: 90%
[5]; Herbicide No. 15 0.0044 Kg/Ha POE, 8 days after POE
  % Inhibition VELE: 75%
[5]; Herbicide No. 16 0.01 Kg/Ha POE
  % Inhibition VELE: 25%
[5]; Herbicide No. 18 0.0044 Kg/Ha POE
  % Inhibition VELE: 70%
[5]; Herbicide No. 19 0.28 Kg/Ha POE
  % Inhibition VELE: 60%
[5]; Herbicide No. 21 0.14 Kg/Ha POE
  % Inhibition VELE: 85%
[5]; Herbicide No. 23 0.0006 Kg/Ha POE
  % Inhibition VELE: 65%
[2]; [12]
  % Inhibition VELE: 50%
[2]; [13]
  % Inhibition VELE: 85%
[2]; [14]
  % Inhibition VELE: 95%
[2]; [15]
  % Inhibition VELE: 0%
[2]; [16]
  % Inhibition VELE: 75%
[2]; [17]
  % Inhibition VELE: 85%
[3]; […], PPI, 14 days after PPI (Table 34)
  % Inhibition VELE: 90%
